How the values were obtained:
[1] = tested on: PAR-4; conditions: mouse embryonic fibroblast (MEF) cells, at micromolar levels; cited from earlier work
[2] = tested on: Mouse embryonic fibroblast cells; experiment: Assay to analyse non-cytotoxic concentration (CellTiter 96 AQueous One cell proliferation assay); type: cell-based; conditions: up to 48 hours, highest concentration of 125 μM
Description: Mouse embryonic fibroblast cells were plated in 96-well cell culture plates (2×10^4 cells/well) and were treated with drug/s at various concentrations. […] After the incubation anti-proliferative activity of test compounds was measured using ProMega Cell Titer aqueous one solution cell proliferation assay kit, viz. CellTiter 96® AQueous One Solution Reagent. Cells were incubated for 1-4 hours at 37° C., 5% CO2 incubator and absorbance was measured at 490 nm using a plate reader. IC50 values were determined by plotting compound concentration versus cell viability.

[3] = tested on: PAR-4; experiment: PAR-4 secretion assay, Western blot of conditioned media and lysate; type: cell-based, mouse
Description: Material: DMEM media, FBS, Mouse embryonic fibroblast cells, PAR-4 antibody, Antirabbit IgG-HRP, Collagen A1 antibody, B-actin antibody, Antimouse IgG HRP
Six well plate seeded (2 ml per well) with Mouse embryonic fibroblast cells in DMEM+10% FBS. The plate was incubated for 16-18 hrs, 37° C. 5% CO2.
Drugs to be tested are diluted with suitable solvent to obtain 25 mM concentration. Media from cells is discarded and replaced with DMEM media with 0.1% FBS. Compound added to the cells at final concentration of 25 μM.
Conditioned media (CM-supernatant) is collected from each well and centrifuged at 1000 rpm/5 mins to remove cell debris. After centrifugation the media was poured in concentration filters (Amicon ultracentrifuge tube with cutoff 10 Kda) and again centrifuged at 4500 rpm/15 mins at 4° C. The media was concentrated to 100 μl and then mixed with 50 μl of loading dye. The mixture was maintained in a 100° C. dry bath/water bath for 10 mins. SDS-PAGE and a western blot was performed of the samples using broad range molecular weight marker.

Row | Compound | stimulation of PAR-4 secretion [1] | toxicity in Mouse Embryonic fibroblast cells [2] | PAR-4 secretion (FIG. 1, Western blot) ([3]; mouse embryonic fibroblast cells) | increase in the secretion of intracellular PAR-4 ([3]; mouse embryonic fibroblast cells (lysate), compared to DMSO control, Western blot, compound at 25 μM) | increase in the secretion of PAR-4 in the conditioned media ([3]; mouse embryonic fibroblast cells, compared to DMSO control, Western blot, compound at 25 μM)
1 | COc1ccc(C2=N[C@@H](c3ccc(Cl)cc3)[C@@H](c3ccc(Cl)cc3)N2C(=O)N2CCNC(=O)C2)c(OC(C)C)c1 [Nutlin-3a] | stimulated PAR-4 secretion at micromolar levels |  |  |  | 
2 | CO/N=C(\C(=O)N[C@@H]1C(=O)N2C(C(=O)O)=C(COC(N)=O)CS[C@H]12)c1ccco1 [Cefuroxime, (6R, 7R)-3-{[(aminocarbonyl)oxy]methyl}-7-{[(2Z)-2-(2-furyl)-2-(methoxyimino)acetyl]amino}-8-oxo-5-thia-1-azabicyclo [4.2.0]oct-2-ene-2-carboxylic acid] |  | does not show toxicity | increased PAR-4 secretion | about 2 fold | 4-5 fold

— patent US11129836B2, “PAR-4 agonists for the treatment of cancer” (Cipla Limited, priority 2016, dated 2021)
